# Source: paper PMC12040169 (PLOS Biology, 2025)
# Assay: in vitro
# Details: human, hela cells, % viability
Structure (SMILES),"viability at 28.5 h, 10 µM [%]","viability at 28.5 h, 10 µM (bulk resorufin, single well) [%]"
CC(C)(C)OC(=O)N1CCN(c2cncc(NCc3ccccc3)n2)CC1 [CBK000154],112,
CNS(=O)(=O)c1ccc(NC(=O)Nc2ccc([N+](=O)[O-])cc2OC)cc1 [CBK266939],93.1,
NC(=O)C1(N2CCCCC2)CCN(C(=S)Nc2ccc(Oc3ccccc3)cc2)CC1 [CBK265862],84.7,
CN(C)C(=O)c1ccc(-c2cnc(N)c(-c3ccc(O)cc3)n2)cc1 [CBK116686],91.7,
Nc1ncnc(N(c2ccccc2)c2ccccc2)n1 [CBK288139],104,
CCC1CCCCN1C(=O)c1cccc(OC)c1 (stereo not shown) [CBK081504],98,
O=C(CSCc1c(F)cccc1Cl)NCc1ccccc1Cl [CBK269155],91.6,
O=C(CN(c1cc(Cl)ccc1Cl)S(=O)(=O)c1ccccc1)Nc1cccnc1 [CBK268708],59.3,
Oc1n[nH]c(CSCc2ccccc2Cl)n1 [CBK267427],87.6,
Cc1ccc(-n2c(=O)[nH]cc(C(=O)Nc3ccc(C)c(F)c3)c2=O)cc1C [CBK287550],97.5,
O=C(O)C1(Cc2ccc(-c3cccs3)cc2)CCNC1 (stereo not shown) [CBK281679],90.8,
COc1ccc(/C=C2/SC(=O)N(CCNC3=NS(=O)(=O)c4ccccc43)C2=O)cc1 [CBK265545],83.4,
Cc1cc(C)cc(NS(=O)(=O)c2ccc(NC(=O)C(C)Oc3ccc(Cl)cc3Cl)cc2)c1 (stereo not shown) [CBK264894],108,
O=C1CCC(CNS(=O)(=O)c2ccccc2Cl)N1 (stereo not shown) [CBK304850],103,
Cc1nccn1CCNC(=O)c1c2c(nn1C)CCCC2 [CBK281857],100,
O=C(Nc1ccccc1)N(Cc1nc(-c2ccccc2)no1)C1CCCCC1 [CBK269830],93.2,
O=C(Cn1cccn1)Nc1ccc2c(c1)CN(Cc1ccccc1)C2 [CBK281829],85.6,
COc1ccc2[nH]c3c(c2c1)CCN1C(c2ccco2)N2CCC31CC2 (stereo not shown) [CBK284432],88,
Cc1nc(CN(C)C2CCN(Cc3ccc4c(c3)CCC4)C2)no1 (stereo not shown) [CBK304052],76.5,
O=C(O)CCCC(=O)N(c1ccccc1)c1ccccc1 [CBK286901],80.2,
O=C(CN1C(=O)N2CCCN=C2c2ccccc21)NC1CCCC1 [CBK284397],82.6,
O=C(NCC(CN1CCOCC1)([N+](=O)[O-])[N+](=O)[O-])c1ccccc1 [CBK261339],100,

Structure (SMILES),"viability at 28.5 h, 10 µM [%]","viability at 28.5 h, 10 µM (bulk resorufin, single well) [%]"
O=C(c1cc(S(=O)(=O)NCc2ccco2)c(Cl)cc1Cl)N1CCCC1 [CBK306076],87.8,
C[C@H](Cn1nc2c(cc1=O)CCCCC2)NC(=O)C1CCCC1 [CBK284546],83.2,
C[C@@H]1CN(Cc2ccccc2)C[C@H](C)N1 [CBK001569],86.1,
O=S(=O)(Nc1ccc(C(O)(C(F)(F)F)C(F)(F)F)cc1)c1ccccc1Br [CBK062101],96.3,
O=c1ccc2c(-c3ccsc3)ccnc2[nH]1 [CBK073724],91.5,
COCCn1c(SC)nc2sc(-c3ccccc3)cc2c1=O [CBK295200],89.8,
Cn1c(Cc2cccc3ccccc23)nnc1SCc1ccc([N+](=O)[O-])cc1 [CBK265898],93.6,
CSc1ccc(/C=C(\C#N)c2nn(-c3ccccc3)c(N)c2C#N)cc1 [CBK262339],105,
COc1ccc(CN2CCC(N3CCc4ccccc4C3)CC2)cc1OCc1ccccc1 [CBK264629G],91.4,
COC(=O)c1cscc1NC(=O)c1cnc(-c2ccc(Cl)cc2)c(-c2ccco2)c1 [CBK036657],104,
CCOC(=O)N1CCN(Cn2nc(COc3ccccc3)n(C)c2=S)CC1 [CBK265148],97.4,
NC1=C(c2ccccc2)C(=O)CN1NC(=O)COc1ccccc1-c1ccccc1 [CBK269258],95.1,
COc1ccc(N(C(C)C(=O)N/N=C(\C)c2ccccc2O)S(C)(=O)=O)cc1 (stereo not shown) [CBK262402],93.4,
CN1CCC[C@H]1C(=O)Nc1cccc2cc[nH]c12 [CBK160098],104,
CCOC(=O)CNC(=O)C1Cc2ccccc2CN1S(=O)(=O)c1cccs1 (stereo not shown) [CBK265575],103,
O=C(N[C@@H]1C[C@H]1c1ccccc1)N1CCC2(CC1)OCc1cc(F)ccc1O2 [CBK060724],,82.1
NS(=O)(=O)c1ccc(CNS(=O)(=O)Cc2ccccc2)cc1 [CBK228048],87,
CSc1nsc(SCC(=O)Nc2cccc(NC(C)=O)c2)n1 [CBK269833],93.2,
O=C(Nc1cc(Br)ccc1O)c1cnn2c(C(F)(F)F)cc(-c3cccs3)nc12 [CBK268190],96,
CC(C)(O)c1cn(C2CN(C(=O)c3sccc3-c3ccccc3)C2)nn1 [CBK305442],87.6,
CC(=O)Nc1ccc(-c2cncc(N3CCN(C(=O)c4ccco4)CC3)n2)cc1 [CBK066065],99.3,
OCCN(Cc1cccs1)Cc1c[nH]nc1-c1cccs1 [CBK282599],86,

Structure (SMILES),"viability at 28.5 h, 10 µM [%]","viability at 28.5 h, 10 µM (bulk resorufin, single well) [%]"
O=C1N=C(NC2CCCCCC2)SC1C(=O)N1CCCCCC1 (stereo not shown) [CBK085513],93.1,
Cc1ccc(S(=O)(=O)NC(CO)C(=O)O)cc1 (stereo not shown) [CBK260965],96,
Clc1ccc2c(c1)OCC[C@@H]2Oc1cncc(N2CCNCC2)n1 [CBK172313G],86.2,
Cc1ccc(-c2csc(CC#N)n2)cc1 [CBK047576],79.3,
COc1ccc(Nc2ccc(-c3ccsc3)cn2)c(C)c1 [CBK036855],109,
O=C(O)c1ccc(S(=O)(=O)NC2CCS(=O)(=O)C2)cc1 (stereo not shown) [CBK262477],110,
CN(C)CCN(C)c1cncc(-c2ccc3ccccc3c2)n1 [CBK037146],77.7,
Cc1nccn1CCNC(=O)CCc1cn(C)c2ccccc12 [CBK281962],86.1,
Cc1ccc(C)c(C(=O)C2=C(O)C(=O)N(CCCN3CCOCC3)C2c2ccncc2)c1 (stereo not shown) [CBK265492],103,
CCCCN(C)c1nccnc1-c1ccc(CO)cc1 [CBK037666],92.3,
O=C(COc1ccc(Br)cc1)N1CCN(Cc2ccncc2)CC1 [CBK073259],98.1,
CC(C)Oc1cccc(C(=O)Nc2ccc(N3CCN(C(=O)C(C)(C)C)CC3)cc2)c1 [CBK270280],88.7,
CN(C)CCNC(=O)c1cccc(-c2cncc(NCc3ccc4c(c3)OCO4)n2)c1 [CBK065361],110,
Cc1ccc2c(c1)OC(C)(C)CC2NS(=O)(=O)N1CCN(C)CC1 (stereo not shown) [CBK307271],103,
CC(=O)Nc1cccc(CN(CCCCO)C2CC2)c1 [CBK304806],91.6,
Cc1ccc2sc(NC(=O)c3ccc(Cl)s3)nc2c1C [CBK291144],103,
O=C(c1cn2cc(-c3cccs3)n(CC3CC3)c(=O)c2n1)N1CCCC1 [CBK306756],92.8,
CNC(=O)Nc1ccc(C(C)(C)C)cc1Br [CBK086434],111,
Cc1ccc(CNC(=O)c2ccc(-n3ccnc3)c(-n3cccc3)c2)o1 [CBK284812],99.2,
Cc1nnc(SCC(=O)N2c3ccccc3Sc3ccccc32)n1N [CBK265920],96.5,
